# According to ChEMBL document CHEMBL3046781, “Resistance of Helicoverpa assulta (Guenée) (Lepidoptera: Noctuidae) to fenvalerate, phoxim and methomyl in China” (2009):
# Legend:
# Assay type in all cases: functional
# Helicoverpa assulta [1] = test: Insecticidal activity against sixth-instar larvae of Helicoverpa assulta HB2 at 39 to 12630 mg/l after 48 hr by chi-squared analysis
# Helicoverpa assulta [2] = test: Resistance factor, ratio of LD50 for sixth-instar larvae of Helicoverpa assulta FJ3 to LD50 for sixth-instar larvae of Helicoverpa assulta at 39 to 12630 mg/l
# Helicoverpa assulta [3] = test: Resistance factor, ratio of LD50 for sixth-instar larvae of Helicoverpa assulta HB2 to LD50 for sixth-instar larvae of Helicoverpa assulta at 39 to 12630 mg/l
# Helicoverpa assulta [4] = test: Resistance factor, ratio of LD50 for sixth-instar larvae of Helicoverpa assulta HB1 to LD50 for sixth-instar larvae of Helicoverpa assulta at 39 to 12630 mg/l
# Helicoverpa assulta [5] = test: Insecticidal activity against sixth-instar larvae of Helicoverpa assulta GZ5 at 1.8 to 183360 mg/l after 48 hr by chi-squared analysis
# Helicoverpa assulta [6] = test: Resistance factor, ratio of LD50 for sixth-instar larvae of Helicoverpa assulta YN1 to LD50 for sixth-instar larvae of Helicoverpa assulta at 1.8 to 183360 mg/l
# Helicoverpa assulta [7] = test: Insecticidal activity against sixth-instar larvae of Helicoverpa assulta HN2 at 1.8 to 183360 mg/l after 48 hr by chi-squared analysis
# Helicoverpa assulta [8] = test: Resistance factor, ratio of LD50 for sixth-instar larvae of Helicoverpa assulta HB2 to LD50 for sixth-instar larvae of Helicoverpa assulta at 1.8 to 183360 mg/l
# Helicoverpa assulta [9] = test: Resistance factor, ratio of LD50 for sixth-instar larvae of Helicoverpa assulta AH1 to LD50 for sixth-instar larvae of Helicoverpa assulta at 21 to 3390 mg/l
# Helicoverpa assulta [10] = test: Resistance factor, ratio of LD50 for sixth-instar larvae of Helicoverpa assulta GZ2 to LD50 for sixth-instar larvae of Helicoverpa assulta at 21 to 3390 mg/l
# Helicoverpa assulta [11] = test: Resistance factor, ratio of LD50 for sixth-instar larvae of Helicoverpa assulta YN8 to LD50 for sixth-instar larvae of Helicoverpa assulta at 21 to 3390 mg/l
# Helicoverpa assulta [12] = test: Insecticidal activity against sixth-instar larvae of Helicoverpa assulta AH2 at 21 to 3390 mg/l after 48 hr by chi-squared analysis
# Helicoverpa assulta [13] = test: Resistance factor, ratio of LD50 for sixth-instar larvae of Helicoverpa assulta HB2 to LD50 for sixth-instar larvae of Helicoverpa assulta at 21 to 3390 mg/l
# Helicoverpa assulta [14] = test: Resistance factor, ratio of LD50 for sixth-instar larvae of Helicoverpa assulta FJ3 to LD50 for sixth-instar larvae of Helicoverpa assulta at 21 to 3390 mg/l
smiles,measurement,setting,value
CCOP(=S)(OCC)O/N=C(\C#N)c1ccccc1 [PHOXIM],LD90,Helicoverpa assulta [1],37.4 µg/g
same,LD50,"Helicoverpa assulta [1]; Helicoverpa assulta, HB2, 48 h",11.8 mg/kg
same,Ratio,Helicoverpa assulta [2],8.15
same,Ratio,Helicoverpa assulta [3],5.04
same,Ratio,Helicoverpa assulta [4],3.49
CC(C)C(C(=O)OC(C#N)c1cccc(Oc2ccccc2)c1)c1ccc(Cl)cc1 (stereo not drawn) [FENVALERATE],LD90,Helicoverpa assulta [5],74.2 µg/g
same,LD50,"Helicoverpa assulta [5]; Helicoverpa assulta, GZ5, 48 h",30.6 mg/kg
same,Ratio,Helicoverpa assulta [6],8412
same,LD90,Helicoverpa assulta [7],7.63 µg/g
same,LD50,"Helicoverpa assulta [7]; Helicoverpa assulta, HN2, 48 h",1.17 mg/kg
same,Ratio,Helicoverpa assulta [8],28.5
CNC(=O)ON=C(C)SC [METHOMYL],Ratio,Helicoverpa assulta [9],37.1
same,Ratio,Helicoverpa assulta [10],13.9
same,Ratio,Helicoverpa assulta [11],23.1
same,LD90,Helicoverpa assulta [12],59.6 µg/g
same,LD50,"Helicoverpa assulta [12]; Helicoverpa assulta, AH2, 48 h",22.1 mg/kg
same,Ratio,Helicoverpa assulta [13],10.9
same,Ratio,Helicoverpa assulta [14],16.3
